{"source": "the supplement of paper PMC11208160", "data": [{"assay": "recombinant UMI read abundance after kanamycin selection (control-corrected) (log10(CPM+1)); higher = more efficient recombination; extreme values may be limits of the assay; sequences stand for … in AGTGCAGAGAAAATCGGCCAGTTTTCTCTGCCTGCAGTCCGCATGCCGTGGGACCCCTTGGGTTCTAACCTGTTGCCTAGATTTATGCAGCGGACTGCCTTTCTCCCAAAGTGATAAACCGG…AGGTTGGTTTCACT; site = the 11-nt donor", "outline": "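Two replicates each of selected and unselected plating were used in this pooled Escherichia coli screen of donor and donor-binding-loop pairs for the IS621 bridge recombinase. Selection was with IPTG (0.07 mM) and kanamycin. Counts of recombinant UMIs, amplified across the donor–target junction, were converted to CPM, averaged, scaled by control-derived factors and reported as log10(CPM+1).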", "values": [{"sequence": "AGGAAGACATGGACCGGTTTTCCCGGTAATCCGTATTTGCA (site AGGATGACTTG)", "recombinant UMI read abundance (log10)": 0.688}, {"sequence": "AGGAAGACATGGACCGGTTTTCCCGGTAATCCGTATTTGCA (site AGGATGTCTTG)", "recombinant UMI read abundance (log10)": 0}, {"sequence": "AGGAAGACATGGACCGGTTTTCCCGGTAATCCGTATTTGCA (site AGGCAGACTAG)", "recombinant UMI read abundance (log10)": 0}, {"sequence": "AGGAAGACATGGACCGGTTTTCCCGGTAATCCGTATTTGCA (site AGGCAGACTTC)", "recombinant UMI read abundance (log10)": 0.0244}, {"sequence": "AGGAAGACATGGACCGGTTTTCCCGGTAATCCGTATTTGCA (site AGGCAGACTTG)", "recombinant UMI read abundance (log10)": 1.49}, {"sequence": "AGGAAGACATGGACCGGTTTTCCCGGTAATCCGTATTTGCA (site AGGCAGGCTTG)", "recombinant UMI read abundance (log10)": 0.0104}, {"sequence": "AGGAAGACATGGACCGGTTTTCCCGGTAATCCGTATTTGCA (site AGGCATACTTG)", "recombinant UMI read abundance (log10)": 0}, {"sequence": "AGGAAGACATGGACCGGTTTTCCCGGTAATCCGTATTTGCA (site AGGCCGACTTG)", "recombinant UMI read abundance (log10)": 0.00452}, {"sequence": "AGGAAGACATGGACCGGTTTTCCCGGTAATCCGTATTTGCA (site AGGGAAACTTG)", "recombinant UMI read abundance (log10)": 0}, {"sequence": "AGGAAGACATGGACCGGTTTTCCCGGTAATCCGTATTTGCA (site AGGGAGACTCG)", "recombinant UMI read abundance (log10)": 0}, {"sequence": "AGGAAGACATGGACCGGTTTTCCCGGTAATCCGTATTTGCA (site AGGGAGACTTA)", "recombinant UMI read abundance (log10)": 0.00967}, {"sequence": "AGGAAGACATGGACCGGTTTTCCCGGTAATCCGTATTTGCA (site AGGGAGACTTG)", "recombinant UMI read abundance (log10)": 1.32}, {"sequence": "AGGAAGACATGGACCGGTTTTCCCGGTAATCCGTATTTGCA (site AGGGAGTCTTG)", "recombinant UMI read abundance (log10)": 0}, {"sequence": "AGGAAGACATGGACCGGTTTTCCCGGTAATCCGTATTTGCA (site AGGGTGACTTG)", "recombinant UMI read abundance (log10)": 0.161}, {"sequence": "AGGAAGACATGGACCGGTTTTCCCGGTAATCCGTATTTGCA (site AGGTACACTTG)", "recombinant UMI read abundance (log10)": 1.06}, {"sequence": "AGGAAGACATGGACCGGTTTTCCCGGTAATCCGTATTTGCA (site AGGTAGACTGG)", "recombinant UMI read abundance (log10)": 0}, {"sequence": "AGGAAGACATGGACCGGTTTTCCCGGTAATCCGTATTTGCA (site AGGTAGACTTG)", "recombinant UMI read abundance (log10)": 1.88}, {"sequence": "AGGAAGACATGGACCGGTTTTCCCGGTAATCCGTATTTGCA (site AGGTAGACTTT)", "recombinant UMI read abundance (log10)": 0.0208}, {"sequence": "AGGAAGACATGGACCGGTTTTCCCGGTAATCCGTATTTGCA (site AGGTAGCCTTG)", "recombinant UMI read abundance (log10)": 0}, {"sequence": "AGGAAGACATGGACCGGTTTTCCCGGTAATCCGTATTTGCA (site AGGTGGACTTG)", "recombinant UMI read abundance (log10)": 0.577}, {"sequence": "AGGAAGACATGGACCGGTTTTCCCGGTAATCCGTATTTGCA (site AGTAACACTTG)", "recombinant UMI read abundance (log10)": 0.00423}, {"sequence": "AGGAAGACATGGACCGGTTTTCCCGGTAATCCGTATTTGCA (site AGTAAGACTGG)", "recombinant UMI read abundance (log10)": 0}, {"sequence": "AGGAAGACATGGACCGGTTTTCCCGGTAATCCGTATTTGCA (site AGTAAGACTTG)", "recombinant UMI read abundance (log10)": 1.25}, {"sequence": "AGGAAGACATGGACCGGTTTTCCCGGTAATCCGTATTTGCA (site AGTAAGACTTT)", "recombinant UMI read abundance (log10)": 0.006}, {"sequence": "AGGAAGACATGGACCGGTTTTCCCGGTAATCCGTATTTGCA (site AGTAAGCCTTG)", "recombinant UMI read abundance (log10)": 0}, {"sequence": "AGGAAGACATGGACCGGTTTTCCCGGTAATCCGTATTTGCA (site AGTAGGACTTG)", "recombinant UMI read abundance (log10)": 0.855}, {"sequence": "AGGAAGACATGGACCGGTTTTCCCGGTAATCCGTATTTGCA (site AGTTAGACTTG)", "recombinant UMI read abundance (log10)": 1}, {"sequence": "AGGAAGACATGGACCGGTTTTCCCGGTAATCCGTATTTGCA (site ATCAAGACTTG)", "recombinant UMI read abundance (log10)": 0.869}, {"sequence": "AGGAAGACATGGACCGGTTTTCCCGGTAATCCGTATTTGCA (site ATGAAGACTAG)", "recombinant UMI read abundance (log10)": 0}, {"sequence": "AGGAAGACATGGACCGGTTTTCCCGGTAATCCGTATTTGCA (site ATGAAGACTTC)", "recombinant UMI read abundance (log10)": 0.0122}, {"sequence": "AGGAAGACATGGACCGGTTTTCCCGGTAATCCGTATTTGCA (site ATGAAGACTTG)", "recombinant UMI read abundance (log10)": 1.43}, {"sequence": "AGGAAGACATGGACCGGTTTTCCCGGTAATCCGTATTTGCA (site ATGAAGGCTTG)", "recombinant UMI read abundance (log10)": 0}, {"sequence": "AGGAAGACATGGACCGGTTTTCCCGGTAATCCGTATTTGCA (site ATGAATACTTG)", "recombinant UMI read abundance (log10)": 0}, {"sequence": "AGGAAGACATGGACCGGTTTTCCCGGTAATCCGTATTTGCA (site ATGACGACTTG)", "recombinant UMI read abundance (log10)": 0}, {"sequence": "AGGAAGACATGGACCGGTTTTCCCGGTAATCCGTATTTGCA (site ATGCAGACTTG)", "recombinant UMI read abundance (log10)": 0.701}, {"sequence": "AGGAAGACATGGACCGGTTTTCCCGGTAATCCGTATTTGCA (site CAGAAGACTTG)", "recombinant UMI read abundance (log10)": 1.43}, {"sequence": "AGGAAGACATGGACCGGTTTTCCCGGTAATCCGTATTTGCA (site CGGAACACTTG)", "recombinant UMI read abundance (log10)": 0.912}]}]}
